In the NIST ThermoML archive (doi:10.1021/je050544m):
Numbers after ± are expanded uncertainties.

Assay: activity coefficient (dimensionless); of the first substance listed, at infinite dilution; xn = mol fraction of the nth substance listed
Conditions: 101 kPa, Liquid, Chromatography, x1 = 0

| Compound | activity coefficient (323 K) | activity coefficient (343 K) | activity coefficient (303 K) |
| --- | --- | --- | --- |
| CCCO [propan-1-ol] + CCCCn1cc[n+](C)c1.F[B-](F)(F)F | 2.64 ± 0.28 | 2.28 ± 0.24 | – |
| ClC(Cl)(Cl)Cl [tetrachloromethane] + CCCCCCn1cc[n+](C)c1.F[B-](F)(F)F | 3.3 ± 0.35 | 3.61 ± 0.38 | – |
| CCCCCC [hexane] + CCn1cc[n+](C)c1.F[B-](F)(F)F | 113 ± 12 | 64.8 ± 6.8 | 125 ± 13 |
| CC(C)=O [acetone] + CCCCCCn1cc[n+](C)c1.F[B-](F)(F)F | 0.85 ± 0.09 | 0.91 ± 0.09 | – |
| ClC=C(Cl)Cl [trichloroethene] + CCCCCCCC[n+]1ccn(C)c1.F[B-](F)(F)F | 1.67 ± 0.17 | 1.76 ± 0.18 | – |
| CC(C)O [propan-2-ol] + CCCCCCCC[n+]1ccn(C)c1.F[B-](F)(F)F | 1.41 ± 0.15 | 1.27 ± 0.13 | – |
| Cc1ccccc1 [toluene] + CCn1cc[n+](C)c1.F[B-](F)(F)F | – | 4.03 ± 0.42 | – |
| ClC(Cl)Cl [trichloromethane] + CCCCCCCC[n+]1ccn(C)c1.F[B-](F)(F)F | 0.62 ± 0.07 | 0.7 ± 0.07 | – |
| CCCCCCC [heptane] + CCn1cc[n+](C)c1.F[B-](F)(F)F | 173 ± 18 | 139 ± 15 | 202 ± 21 |
| ClC(Cl)(Cl)Cl [tetrachloromethane] + CCCCn1cc[n+](C)c1.F[B-](F)(F)F | 5.5 ± 0.58 | 5.73 ± 0.6 | – |
| CCOC(C)=O [ethyl acetate] + CCCCCCn1cc[n+](C)c1.F[B-](F)(F)F | 5.58 ± 0.59 | 5.48 ± 0.58 | – |
| CC(C)CC(C)(C)C [2,2,4-trimethylpentane] + CCn1cc[n+](C)c1.F[B-](F)(F)F | 168 ± 18 | 162 ± 17 | 222 ± 23 |
| ClC(Cl)Cl [trichloromethane] + CCCCn1cc[n+](C)c1.F[B-](F)(F)F | 1.13 ± 0.12 | 1.29 ± 0.13 | – |
| CCCCCCC [heptane] + CCCCn1cc[n+](C)c1.F[B-](F)(F)F | 115 ± 12 | 99 ± 10 | 134 ± 14 |
